Measured values from article PMC11243320, “Tailoring Fibroblast-Activation Protein Targeting for Theranostics: A Comparative Preclinical Evaluation of the ^68Ga- and ^177Lu-Labeled Monomeric and Dimeric Fibroblast-Activation Protein Inhibitors DOTA.SA.FAPi and DOTAGA.(SA.FAPi)2” (Molecules, 2024).

Tested on: U87MG tumor-bearing mice
Test: Ex vivo biodistribution of 68Ga-labeled radiotracers in U87MG xenografts
Description: U87MG and PC3 tumor-bearing mice: Female athymic BALB/c (6 weeks/16–20 g) and male athymic BALB/c nude mice (6 weeks/20–25 g) were implanted with U87MG or PC3 cells (5 × 10^6/100 µL PBS) into their right shoulder, respectively. The animals were used for biodistribution and PET/SPECT/CT imaging studies (Animal License No: BE98/2021).
Ten pmol (0.08–0.1 MBq) of the radiotracers in 100 µL of NaCl 0.9% were injected intravenously into the tail vein of U87MG and PC3 tumor-bearing mice and biodistribution studies were conducted at 1, 2, and 3 h after injection.
Saturation Binding Studies […]
The radioactivity of the culture medium, the receptor bound , the internalized and the externalized fractions were measured in a γ -counter. The externalized fraction of radioactivity was ex-pressed as the percentage of the total internalized amount.
[68Ga]Ga -DOTA.SA.FAPi and [ 68Ga]Ga -DOTAGA.(SA.FAPi) 2
Ten pmol ( 0.08 –0.1 MBq) of [68Ga]Ga -monomer and [ 68Ga]Ga -dimer in 100 µ L of NaCl 0.9% were injected intravenously into the tail vein of U87MG or PC3 tumor bearing mice . The PC3 tumor-bearing mice were used between the 15th and 17th day after the xenograft implantation and the size was 281 ± 75 mm3. The U87MG tumor-bearing mice were used between the 7th and 9th day after the implantation and the size was 210 ± 34 mm3. Animals were terminally anesthetized by intraperitoneal injection of an overdose of pento-barbital natrium (150 mg/kg; Streuli Pharma SA, Uznach, Switzerland) at 1, 2 and 3 h after injection of the radiotracers. The organs of interest were dissected and weighed, and the radioactivity in the tissue samples […]
was counted in a γ-counter. Biodistribution data are given as the percent of injected activity per gram of tissue (% IA/g) and as means ± SD (n = 4). […]
each radiotracer along with 20 nmol of UAMC1110 (total injected volume: 100 µL) and biodistribution stud-ies were performed 2 h after injection.
[177Lu]Lu-DOTA.SA.FAPi and [177Lu]Lu-DOTAGA.(SA.FAPi)2
Ten pmol (0.06-0.08 MBq) of [177Lu]Lu-monomer and [177Lu]Lu-dimer in 100 µL of NaCl 0.9% were injected intravenously into the tail vein of PC3 tumor-bearing mice. The PC3 tumor-bearing mice were used between the 15th and 17th day after the xenograft implantation and its size was 281 ± 75 mm3. Animals were terminally anesthetized by intraperitoneal injection of an overdose of pentobarbital natrium (150 mg/kg; Streuli Pharma SA, Uznach, Switzerland) 1, 4, 24 and 48 h after the injection of [177Lu]Lu-DOTA.SA.FAPi and at 4, 24, 48, 72 and 96 h after the injection of [177Lu]Lu-DOTAGA.(SA.FAPi)2. The organs of interest were dissected and weighed, and the radioactivity in the tissue samples was counted in a γ-counter. The biodistribution data are given as the percent of injected activity per gram of tissue (% IA/g) and as means ± SD (n = 4). […]
blood pools or if they were necrotic. Both tumor types were “clean” without extended vascularization; there […]
Small Animal Imaging Studies
PET images were obtained after injection of 200 pmol of [68Ga]Ga-DOTA.SA.FAPi and [68Ga]Ga-DOT-AGA.(SA.FAPi)2 (1.0–1.6 MBq/100 μL) into U87MG or PC3 xenografts at 1, 2 and 3 h after injection. Static imaging was acquired for a time period between 10 and 45 min at 1, 2 and 3 h post injection, respectively.
To visualize the extent of FAP-specific tumor uptake, PET/CT blocking studies were performed as described above, and static scans were obtained for 30 min 2 h after the injection of the radiotracer along with the blocking agent (20 nmol).
PET images were corrected for gallium-68 decay and reconstructed with 12 iterations of the maximum a posteriori (MAP) algorithm using a voxel size of 0.25 mm. No correction was applied for attenuation. In addition, a point spread function iterative deconvolution was applied. The images were normalized, filtered using a Gaussian 3D algorithm with a 1.3 mm isotropic kernel and generated using PMOD software. The CT was carried out using step and shoot mode and employed 45 kVp and 400 uA as settings. The images […]

[1] = 2 h blocking (20 nmol UAMC1110)

- Biodistribution Blood (1 h): 13.4 ± 0.2 % IA/g
- Biodistribution Bone (1 h): 2.1 ± 0.2 % IA/g
- Biodistribution Heart (1 h): 4.9 ± 0.6 % IA/g
- Biodistribution Intestine (1 h): 2.9 ± 0.5 % IA/g
- Biodistribution Kidney (1 h): 3.5 ± 0.7 % IA/g
- Biodistribution Liver (1 h): 3.2 ± 0.4 % IA/g
- Biodistribution Lung (1 h): 3.2 ± 1.7 % IA/g
- Biodistribution Muscle (1 h): 2.6 ± 1.4 % IA/g
- Biodistribution Pancreas (1 h): 9.7 ± 2.7 % IA/g
- Biodistribution Spleen (1 h): 2.3 ± 0.4 % IA/g
- Biodistribution Stomach (1 h): 2.1 ± 0.6 % IA/g
- Biodistribution U87MG-Tumor (1 h): 6.5 ± 0.7 % IA/g
- Tumor/Blood ratio (1 h): 0.5 ± 0.03
- Tumor/Liver ratio (1 h): 2.0 ± 0.3
- Tumor/Muscle ratio (1 h): 2.3 ± 0.7
- Tumor/Pancreas ratio (1 h): 0.7 ± 0.2
- Biodistribution Blood (2 h): 8.5 ± 1.5 % IA/g
- Biodistribution Bone (2 h): 1.3 ± 0.2 % IA/g
- Biodistribution Heart (2 h): 3.1 ± 0.9 % IA/g
- Biodistribution Intestine (2 h): 3.2 ± 0.7 % IA/g
- Biodistribution Kidney (2 h): 2.7 ± 0.6 % IA/g
- Biodistribution Liver (2 h): 3.1 ± 0.9 % IA/g
- Biodistribution Lung (2 h): 2.2 ± 1.0 % IA/g
- Biodistribution Muscle (2 h): 2.8 ± 1.1 % IA/g
- Biodistribution Pancreas (2 h): 10.5 ± 2.8 % IA/g
- Biodistribution Spleen (2 h): 1.6 ± 0.5 % IA/g
- Biodistribution Stomach (2 h): 2.0 ± 0.5 % IA/g
- Biodistribution U87MG-Tumor (2 h): 5.2 ± 1.4 % IA/g
- Tumor/Blood ratio (2 h): 0.7 ± 0.3
- Tumor/Liver ratio (2 h): 1.7 ± 0.5
- Tumor/Muscle ratio (2 h): 1.9 ± 1.5
- Tumor/Pancreas ratio (2 h): 0.5 ± 0.2
- Biodistribution Blood [1]: 0.5 ± 0.1 % IA/g
- Biodistribution Bone [1]: 1.7 ± 0.6 % IA/g
- Biodistribution Heart [1]: 0.7 ± 0.3 % IA/g
- Biodistribution Intestine [1]: 1.3 ± 0.1 % IA/g
- Biodistribution Kidney [1]: 2.5 ± 0.8 % IA/g
- Biodistribution Liver [1]: 0.3 ± 0.03 % IA/g
- Biodistribution Lung [1]: 1.1 ± 0.2 % IA/g
- Biodistribution Muscle [1]: 1.4 ± 0.8 % IA/g
- Biodistribution Pancreas [1]: 0.6 ± 0.4 % IA/g
- Biodistribution Spleen [1]: 0.7 ± 0.3 % IA/g
- Biodistribution Stomach [1]: 0.7 ± 0.4 % IA/g
- Biodistribution U87MG-Tumor [1]: 1.1 ± 0.8 % IA/g
- Biodistribution Blood (3 h): 6.2 ± 0.5 % IA/g
- Biodistribution Bone (3 h): 3.0 ± 1.6 % IA/g
- Biodistribution Heart (3 h): 3.7 ± 0.7 % IA/g
- Biodistribution Intestine (3 h): 3.5 ± 0.7 % IA/g
- Biodistribution Kidney (3 h): 3.4 ± 0.3 % IA/g
- Biodistribution Liver (3 h): 3.9 ± 0.3 % IA/g
- Biodistribution Lung (3 h): 3.1 ± 1.0 % IA/g
- Biodistribution Muscle (3 h): 3.1 ± 0.9 % IA/g
- Biodistribution Pancreas (3 h): 8.7 ± 1.3 % IA/g
- Biodistribution Spleen (3 h): 2.8 ± 1.0 % IA/g
- Biodistribution Stomach (3 h): 2.2 ± 0.5 % IA/g
- Biodistribution U87MG-Tumor (3 h): 4.9 ± 1.0 % IA/g
- Tumor/Blood ratio (3 h): 0.8 ± 0.3
- Tumor/Liver ratio (3 h): 1.3 ± 0.5
- Tumor/Muscle ratio (3 h): 1.7 ± 1.2
- Tumor/Pancreas ratio (3 h): 0.6 ± 0.3
Structure (SMILES): N#C[C@@H]1CC(F)(F)CN1C(=O)CNC(=O)c1ccnc2ccc(OCCCCNc3c(NCCNC(=O)CN4CCN(CC(=O)[O-])CCN(CC(=O)[O-])CCN(CC(=O)[O-])CC4)c(=O)c3=O)cc12.[68Ga+3] [[^68Ga]Ga-DOTA.SA.FAPi]
